Reference: US20250101486A1, “METHOD AND COMPOSITION FOR STABILISING NICOTINAMIDE ADENINE DINUCLEOTIDE” (ORIENTAL YEAST CO., LTD., priority 2022, published 2025)

Columns and labels:
[1] = Stabilizing study of NAD in blood using nicotinamide and NMN; settings: rat whole blood, overnight at 25° C.
Description: (§1) Three times the volume of 0.4 M trichloroacetic acid solution was added to the collected sample, mixed, and placed for 10 minutes under a static condition at room temperature. The mixture was then centrifuged, and the supernatant was collected as an NAD extract.
(§2) NAD in the extract was measured using a 7180 type Hitachi automatic analyzer (manufactured by Hitachi High-Tech Corporation). The measurement was performed by setting the first test solution (comprising a phosphate buffer (pH 7.0), 0.6 mM WST-8 and 1.7 U/mL glucose dehydrogenase (GLUCDH “Amano” 2 manufactured by Amano Enzyme Inc.) and the second test solution (comprising a phosphate buffer (pH 7.8), 320 mM D-glucose and 15 U/mL diaphorase (No. 46445003 manufactured by Oriental Yeast Co., Ltd.) using the measurement parameters as follows. • Analysis method . . . Rate A • Measurement wavelength (sub/main) . . . 600 nm/450 nm • Reaction duration . . . 10 minutes • Photometric points 27 to 34 • Sample solution (NAD extract solution) . . . 2 μL • R1 reagent . . . 120 μL • R2 reagent . . . 40 μL
(§3) That is, 2 AL of NAD extract and 120 μL of the first test solution were mixed and incubated at 37° C. for 4.5 min (photometric point 1 to 16), and 40 μL of the second test solution was added to start the reaction (photometric point 17). The value of an absorbance change per minute (ΔAbs/min) was calculated by subtracting an absorbance of water (blank) at the same photometric point from the absorbance value of the measured sample at 8 to 10 minutes (photometric point 27 to 34) after the start of reaction.
(§4) The NAD concentration of the sample was calculated from the calibration curve (the NAD concentration−the increase rate of absorbance (ΔAbs/min)) that was obtained beforehand by measuring multiple NAD solutions at predetermined concentrations.
(§5) Whole blood was collected from SD retired rats using EDTA-filled blood collection tubes. PBS (pH 6.0) comprising nicotinamide and NMN at 10 times the concentration shown in Table 1 was prepared as a 10× stabilizer for each. 450 μL of whole blood was transferred to a 1.5-mL centrifuge tube, and 50 μL of a 10× stabilizer for each was added and mixed. NAD was added to each tube to make 100 µM and used as a measurement sample.
(§6) The NAD extraction and the NAD measurement were performed on each measurement sample after being placed overnight under a static condition at 25° C., in the same manner according to Example 1. The relative value (%) of NAD concentration of each measured sample was calculated, wherein the concentration at the time of NAD addition (0 hour) was set as 100%. […] It was confirmed that the amount of remaining NAD became higher as the amount of nicotinamide and NMN increased.

[2] = Stabilizing study of NAD in blood using NMN and NR; settings: rat whole blood, overnight at 25° C.
Description: Whole blood was collected from SD retired rats using EDTA-filled blood collection tubes. PBS (pH 6.0) comprising NMN and NR at 10 times the concentration shown in Table 3 was prepared as a 10× stabilizer for each. 450 μL of whole blood was transferred to a 1.5-mL centrifuge tube, and 50 μL of 10× stabilizer for each was added and mixed. NAD was added to each tube to make 100 µM and used as a measurement sample.
The NAD extraction and the NAD measurement were performed on each measurement sample after being placed overnight under a static condition overnight at 25° C., in the same manner according to Example 1. The relative value (%) of NAD concentration of each measured sample was calculated, wherein the concentration at the time of NAD addition (0 hour) was set as 100%.

[3] = Stabilizing study of NAD in blood using nicotinamide and NR; settings: rat whole blood, overnight at 25° C.
Description: as §1, §2, §3, §4
as §5, with “collection tubes,” for “collection tubes.”, “and NR” for “and NMN”, “Table 2” for “Table 1”
as §6, with “NR” for “NMN”

[4] = Stability test of NAD (recovery test of NAD added to human pooled serum); assay type: in vitro ADME
Description: NAD was added to 2250 μL of human pooled serum to make 50 μmol/L and incubated at refrigeration, 25° C. and 37° C. The NAD concentrations in serum were measured at 1, 2, and 19 hours after the start of incubation.
The NAD concentration of the sample (i.e., serum) was measured by the following procedure,
as §1, §2, §3, §4
FIG. 1 is a graph illustrating a time-course change of relative values (%) of the NAD concentration in serum under each incubation condition when the concentration at the time of NAD addition (0 hour) is set as 100%. When stored at 25° C. and 37° C., the NAD concentrations reached almost 0% within two hours.

[5] = after collection, suspended in a buffer solution for extraction, cooled in ice; cited from earlier work

nicotinamide mononucleotide [NMN]
relative value (%) of NAD concentration (0 hour = 100%) ([1]; 0 mM nicotinamide, 3 mM NMN): 8.2% | relative value (%) of NAD concentration (0 hour = 100%) ([1]; 0 mM nicotinamide, 10 mM NMN): 16.1% | relative value (%) of NAD concentration (0 hour = 100%) ([1]; 0 mM nicotinamide, 20 mM NMN): 33.0% | relative value (%) of NAD concentration (0 hour = 100%) ([2]; 0 mM NR, 20 mM NMN): 29.1% | relative value (%) of NAD concentration (0 hour = 100%) ([2]; 0 mM NR, 50 mM NMN): 58.0% | relative value (%) of NAD concentration (0 hour = 100%) ([2]; 0 mM NR, 100 mM NMN): 89.6%

NC(=O)c1ccc[n+]([C@@H]2O[C@H](CO)[C@@H](O)[C@H]2O)c1 [NR, nicotinamide riboside]
relative value (%) of NAD concentration (0 hour = 100%) ([3]; 0 mM nicotinamide, 3 mM NR): 7.5% | relative value (%) of NAD concentration (0 hour = 100%) ([3]; 0 mM nicotinamide, 10 mM NR): 49.7% | relative value (%) of NAD concentration (0 hour = 100%) ([3]; 0 mM nicotinamide, 20 mM NR): 64.8% | relative value (%) of NAD concentration (0 hour = 100%) ([2]; 20 mM NR, 0 mM NMN): 62.9% | relative value (%) of NAD concentration (0 hour = 100%) ([2]; 50 mM NR, 0 mM NMN): 71.2% | relative value (%) of NAD concentration (0 hour = 100%) ([2]; 100 mM NR, 0 mM NMN): 77.7%

NC(=O)c1ccc[n+]([C@@H]2O[C@H](COP(=O)([O-])OP(=O)(O)OC[C@H]3O[C@@H](n4cnc5c(N)ncnc54)[C@H](O)[C@@H]3O)[C@@H](O)[C@H]2O)c1 [NAD, nicotinamide adenine dinucleotide]
relative value (%) of NAD concentration in serum (0 hour = 100%) ([4]; stored at 25° C., within two hours): ~0% | relative value (%) of NAD concentration in serum (0 hour = 100%) ([4]; stored at 37° C., within two hours): ~0% | relative value (%) of NAD concentration in serum (0 hour = 100%) ([4]; stored at refrigeration, within 20 hours): ~0% | NAD concentration in serum relative to 0 hour ([4]; stored at refrigeration, within two hours): reduced by about half | time for which a blood sample for NAD measurement is stable [5]: 5 h

NC(=O)c1cccnc1 [Nicotinamide, nicotinamide]
relative value (%) of NAD concentration (0 hour = 100%) ([1]; 50 mM nicotinamide, 0 mM NMN): 7.4% | relative value (%) of NAD concentration (0 hour = 100%) ([1]; 100 mM nicotinamide, 0 mM NMN): 6.6% | relative value (%) of NAD concentration (0 hour = 100%) ([1]; 200 mM nicotinamide, 0 mM NMN): 13.7% | relative value (%) of NAD concentration (0 hour = 100%) ([3]; 50 mM nicotinamide, 0 mM NR): 7.8% | relative value (%) of NAD concentration (0 hour = 100%) ([3]; 100 mM nicotinamide, 0 mM NR): 8.7% | relative value (%) of NAD concentration (0 hour = 100%) ([3]; 200 mM nicotinamide, 0 mM NR): 10.8%
